Test results: patent US20220249413A1, “SWELL 1 MODULATORS FOR TREATMENT OF NON-ALCOHOLIC FATTY LIVER DISEASE, IMMUNE DEFICIENCIES, MALE INFERTILITY AND VASCULAR DISEASES” (priority 2019, published 2022)

Tests used:
[1] = Tolerability during chronic injection protocols; assay type: in vivo, mouse; details: daily injections for up to 8 weeks, 5 mg/kg i.p.
Description: Patients Human islets and adipocytes were obtained and cultured as described previously (Zhang et al., Nat Cell Biol, 19, 504-517, 2017; Kang et al., Nature Communications, 9, 367, 2018). The Patients involved in the study were anonymous and information such as gender, age, HbA1c, glucose levels and BMI only were available to the research team. The study was approved and carried out as per the guidelines of the University of Iowa Institutional Review Board (IRB). Animals All experimental procedures involving mice were approved by the Institutional Animal Care and Use Committee of the University of Iowa and Washington University at St. Louis. All C57BL/6 mice involved in study were purchased from Charles River Labs. Both KK.Cg-Ay/J (KKA^y) and KK.Cg-Aa/J (KKA^a) mice involved in study were gender and age-matched mice obtained from Jackson Labs (Stock No: 002468) and bred up for experiments. The mice were fed ad libitum with either regular chow (RC) or high-fat diet (Research Diets, Inc., 60 kcal % fat) with free access to water and housed in a light-, temperature- and humidity-controlled room. For high-fat diet (HFD) studies, only male mice were used and were started on HFD regimen at the age of 6-9 weeks. For all experiments involving KKA^y and KKA^a mice, both males and females were used at approximately 50/50 ratio. […] Based on GFP fluorescence, viral transduction efficiency was ˜90%.

[2] = NAFLD assessment: liver weight, histology, triglycerides, NAS in HFD mice; assay type: in vivo, mouse; details: HFD mice treated chronically and intermittently over 21 weeks
Procedure: Liver isolation, triglycerides and histology HFD mice treated with either vehicle or Smod1 were anesthesized with […] followed by cervical dislocation. Gross liver weights were measured and identical sections from right medial lobe of liver were dissected for further examinations. Total triglyceride content was determined by homogenizing 10-50 mg of tissue in 1.5 ml of chloroform:methanol (2:1 v/v) and centrifuged at 12000 rpm for 10 mins at 4° C. An aliquot, 20 ul, was evaporated in a 1.5 ml microcentrifuge tube for 30 mins. Triglyceride content was determined by adding 100 μl of Infinity Triglyceride Reagent (Fisher Scientific) to the dried sample followed by 30 min incubation at RT. The samples were then transferred to a 96 well plate along with standards (0-2000 mg/dl) and absorbance was measured at 540 nm and the final concentration was determined by normalizing to tissue weight. For histological examination, liver sections were fixed in 10% zinc formalin and paraffin embedded for sectioning. Haematoxylin and eosin (H&E) stained sections were then assessed for steatosis grade, lobular inflammation and hepatocyte ballooning for non-alcoholic fatty liver disease (NAFLD) scoring as described (Kleiner et al., Hepatology, 41, 1313-1321, 2005; Liang et al., PLoS One, 9, e115922, 2014; Rauckhorst et al., Mol Metab, 6, 1468-1479, 2017).

CCCCC1(C2CCCC2)Cc2cc(OCCCC(=O)O)c(Cl)c(Cl)c2C1=O (centres unmarked) [Smod1, 4-[(2-Butyl-6,7-dichloro-2-cyclopentyl-2,3-dihydro-1-oxo-1H-inden-5-yl)oxy]butanoic acid]
signs of toxicity [1]: no overt signs of toxicity | hepatic steatosis on histology [2]: marked reduction | liver triglycerides [2]: marked reduction | liver weights ([2]; 5 mg/kg i.p.): marked reduction | NAFLD activity score (NAS) ([2]; vs vehicle): significantly improved
